These results are taken from the OligoGym collection.

Bases are written 5' to 3'; sugars and linkages follow in the same order, as letters with counts (s phosphorothioate, o phosphodiester; PS: all linkages phosphorothioate). C may stand for cytosine or 5-methylcytosine; the collection does not tell. l = locked nucleic acid (LNA); d = 2'-deoxy (DNA)

The target in the data set is HIF1A. Description: HeLa, 100 nM transfected, 24 h, mean of 3. To be noted: ASO.
“GTTACTGCCTTCTTAC (sugars l5 d6 l2 d2 l1, PS)” had a caspase activation (% of PBS control) of 492.

Turning to “GTTACTGCCTTCTTAC (sugars l5 d6 l3 d1 l1, PS)”, the caspase activation (% of PBS control) was determined as 603.

For the sequence GTTACTGCCTTCTTAC (sugars l5 d6 l5, PS), the caspase activation (% of PBS control) turned out to be 624.

For the sequence “GTTACTGCCTTCTTAC (sugars l5 d7 l1 d1 l2, PS)”, the caspase activation (% of PBS control) came out at 454.

Regarding “GTTACTGCCTTCTTAC (sugars l5 d7 l1 d2 l1, PS)”, the caspase activation (% of PBS control) turned out to be 446.

As for “GTTACTGCCTTCTTAC (sugars l5 d7 l2 d1 l1, PS)”, the caspase activation (% of PBS control) was found to be 515.

In turn, GTTACTGCCTTCTTAC (sugars l5 d7 l4, PS) had a caspase activation (% of PBS control) of 574.

“GTTACTGCCTTCTTAC (sugars l5 d8 l1 d1 l1, PS)” came in with a caspase activation (% of PBS control) of 457.

For GTTACTGCCTTCTTAC (sugars l5 d8 l3, PS), the caspase activation (% of PBS control) is 512.

GTTACTGCCTTCTTAC (sugars l5 d9 l2, PS) had a caspase activation (% of PBS control) of 363.

In the case of GTTACTGCCTTCTTAC (sugars l5 d10 l1, PS), the caspase activation (% of PBS control) was 284.

The sequence “GTTACTGCCTTCTTAC (sugars lddddddddddldldl, PS)” displayed a caspase activation (% of PBS control) of 115.

For the sequence “GTTACTGCCTTCTTAC (sugars ldddlddddddddldl, PS)”, the caspase activation (% of PBS control) is 159.

As to “GTTACTGCCTTCTTAC (sugars ldddldddddddlddl, PS)”, the caspase activation (% of PBS control) was determined as 142.

Take “GTTACTGCCTTCTTAC (sugars ldddldddddddldll, PS)”: the caspase activation (% of PBS control) is 135.

With “GTTACTGCCTTCTTAC (sugars ldddldddddddlldl, PS)”, the caspase activation (% of PBS control) was determined as 245.

For “GTTACTGCCTTCTTAC (sugars ldddlddddddldddl, PS)”, the caspase activation (% of PBS control) was found to be 137.

“GTTACTGCCTTCTTAC (sugars ldddlddddddlddll, PS)” came in with a caspase activation (% of PBS control) of 133.

“GTTACTGCCTTCTTAC (sugars ldddlddddddldldl, PS)” returned a caspase activation (% of PBS control) of 161.

“GTTACTGCCTTCTTAC (sugars ldddlddddddldlll, PS)” gave a caspase activation (% of PBS control) of 162.

Regarding “GTTACTGCCTTCTTAC (sugars ldddlddddddllddl, PS)”, the caspase activation (% of PBS control) is 125.

Sequence “GTTACTGCCTTCTTAC (sugars ldddlddddddlldll, PS)” had a caspase activation (% of PBS control) of 165.

In the case of “GTTACTGCCTTCTTAC (sugars ldddlddddddllldl, PS)”, the caspase activation (% of PBS control) was 261.

Sequence “GTTACTGCCTTCTTAC (sugars lddldddddddddldl, PS)” displayed a caspase activation (% of PBS control) of 121.

For “GTTACTGCCTTCTTAC (sugars lddlddddddddlddl, PS)”, the caspase activation (% of PBS control) was determined as 112.

In the case of “GTTACTGCCTTCTTAC (sugars lddlddddddddldll, PS)”, the caspase activation (% of PBS control) was 130.

Sequence “GTTACTGCCTTCTTAC (sugars lddlddddddddlldl, PS)” returned a caspase activation (% of PBS control) of 177.

Sequence “GTTACTGCCTTCTTAC (sugars lddldddddddldddl, PS)” yielded a caspase activation (% of PBS control) of 88.6.

Turning to “GTTACTGCCTTCTTAC (sugars lddldddddddlddll, PS)”, the caspase activation (% of PBS control) was 129.

“GTTACTGCCTTCTTAC (sugars lddldddddddldldl, PS)” showed a caspase activation (% of PBS control) of 135.

On to “GTTACTGCCTTCTTAC (sugars lddldddddddldlll, PS)”, for which the caspase activation (% of PBS control) worked out at 154.

Turning to “GTTACTGCCTTCTTAC (sugars lddldddddddllddl, PS)”, the caspase activation (% of PBS control) is 135.

The sequence “GTTACTGCCTTCTTAC (sugars lddldddddddlldll, PS)” gave a caspase activation (% of PBS control) of 151.

As to “GTTACTGCCTTCTTAC (sugars lddldddddddllldl, PS)”, the caspase activation (% of PBS control) turned out to be 227.

In the case of “GTTACTGCCTTCTTAC (sugars lddllddddddddldl, PS)”, the caspase activation (% of PBS control) is 246.

Turning to “GTTACTGCCTTCTTAC (sugars lddlldddddddlddl, PS)”, the caspase activation (% of PBS control) was found to be 229.

The sequence “GTTACTGCCTTCTTAC (sugars lddlldddddddldll, PS)” displayed a caspase activation (% of PBS control) of 240.

Sequence “GTTACTGCCTTCTTAC (sugars lddlldddddddlldl, PS)” showed a caspase activation (% of PBS control) of 374.

In turn, “GTTACTGCCTTCTTAC (sugars lddllddddddldddl, PS)” returned a caspase activation (% of PBS control) of 188.

“GTTACTGCCTTCTTAC (sugars lddllddddddlddll, PS)” returned a caspase activation (% of PBS control) of 218.

In turn, “GTTACTGCCTTCTTAC (sugars lddllddddddldldl, PS)” registered a caspase activation (% of PBS control) of 207.

For the sequence “GTTACTGCCTTCTTAC (sugars lddllddddddldlll, PS)”, the caspase activation (% of PBS control) came out at 237.

Take “GTTACTGCCTTCTTAC (sugars lddllddddddllddl, PS)”: the caspase activation (% of PBS control) is 268.

As for “GTTACTGCCTTCTTAC (sugars lddllddddddlldll, PS)”, the caspase activation (% of PBS control) is 196.

“GTTACTGCCTTCTTAC (sugars lddllddddddllldl, PS)” showed a caspase activation (% of PBS control) of 414.

Take “GTTACTGCCTTCTTAC (sugars ldlddddddddddldl, PS)”: the caspase activation (% of PBS control) turned out to be 119.

Regarding “GTTACTGCCTTCTTAC (sugars ldldddddddddlddl, PS)”, the caspase activation (% of PBS control) is 118.

For the sequence “GTTACTGCCTTCTTAC (sugars ldldddddddddldll, PS)”, the caspase activation (% of PBS control) was 112.

As to “GTTACTGCCTTCTTAC (sugars ldldddddddddlldl, PS)”, the caspase activation (% of PBS control) came to 165.

In turn, “GTTACTGCCTTCTTAC (sugars ldlddddddddldddl, PS)” gave a caspase activation (% of PBS control) of 115.

Sequence “GTTACTGCCTTCTTAC (sugars ldlddddddddlddll, PS)” yielded a caspase activation (% of PBS control) of 130.

Sequence “GTTACTGCCTTCTTAC (sugars ldlddddddddldldl, PS)” returned a caspase activation (% of PBS control) of 145.

Take “GTTACTGCCTTCTTAC (sugars ldlddddddddldlll, PS)”: the caspase activation (% of PBS control) is 155.

In the case of “GTTACTGCCTTCTTAC (sugars ldlddddddddllddl, PS)”, the caspase activation (% of PBS control) was 158.

The sequence “GTTACTGCCTTCTTAC (sugars ldlddddddddlldll, PS)” yielded a caspase activation (% of PBS control) of 135.

“GTTACTGCCTTCTTAC (sugars ldlddddddddllldl, PS)” came in with a caspase activation (% of PBS control) of 271.

“GTTACTGCCTTCTTAC (sugars ldldlddddddddddl, PS)” yielded a caspase activation (% of PBS control) of 175.

In turn, “GTTACTGCCTTCTTAC (sugars ldldldddddddddll, PS)” had a caspase activation (% of PBS control) of 151.

In the case of “GTTACTGCCTTCTTAC (sugars ldldlddddddddldl, PS)”, the caspase activation (% of PBS control) was 201.

“GTTACTGCCTTCTTAC (sugars ldldlddddddddlll, PS)” came in with a caspase activation (% of PBS control) of 214.

In turn, “GTTACTGCCTTCTTAC (sugars ldldldddddddlddl, PS)” had a caspase activation (% of PBS control) of 220.

The sequence “GTTACTGCCTTCTTAC (sugars ldldldddddddldll, PS)” registered a caspase activation (% of PBS control) of 214.

Consider “GTTACTGCCTTCTTAC (sugars ldldldddddddlldl, PS)”, for which the caspase activation (% of PBS control) was 280.

Consider “GTTACTGCCTTCTTAC (sugars ldldldddddddllll, PS)”, for which the caspase activation (% of PBS control) came to 257.

In turn, “GTTACTGCCTTCTTAC (sugars ldldlddddddldddl, PS)” showed a caspase activation (% of PBS control) of 234.

Take “GTTACTGCCTTCTTAC (sugars ldldlddddddlddll, PS)”: the caspase activation (% of PBS control) turned out to be 220.

The sequence “GTTACTGCCTTCTTAC (sugars ldldlddddddldldl, PS)” displayed a caspase activation (% of PBS control) of 251.

The sequence “GTTACTGCCTTCTTAC (sugars ldldlddddddldlll, PS)” displayed a caspase activation (% of PBS control) of 231.

In turn, “GTTACTGCCTTCTTAC (sugars ldldlddddddllddl, PS)” came in with a caspase activation (% of PBS control) of 282.

For “GTTACTGCCTTCTTAC (sugars ldldlddddddlldll, PS)”, the caspase activation (% of PBS control) was 250.

“GTTACTGCCTTCTTAC (sugars ldldlddddddllldl, PS)” registered a caspase activation (% of PBS control) of 354.

The sequence “GTTACTGCCTTCTTAC (sugars ldldlddddddlllll, PS)” came in with a caspase activation (% of PBS control) of 342.

Take “GTTACTGCCTTCTTAC (sugars ldlldddddddddldl, PS)”: the caspase activation (% of PBS control) was determined as 142.

In the case of “GTTACTGCCTTCTTAC (sugars ldllddddddddlddl, PS)”, the caspase activation (% of PBS control) came out at 183.

For “GTTACTGCCTTCTTAC (sugars ldllddddddddldll, PS)”, the caspase activation (% of PBS control) is 181.

“GTTACTGCCTTCTTAC (sugars ldllddddddddlldl, PS)” came in with a caspase activation (% of PBS control) of 192.

In the case of “GTTACTGCCTTCTTAC (sugars ldlldddddddldddl, PS)”, the caspase activation (% of PBS control) was found to be 213.

In the case of “GTTACTGCCTTCTTAC (sugars ldlldddddddlddll, PS)”, the caspase activation (% of PBS control) is 191.

Turning to “GTTACTGCCTTCTTAC (sugars ldlldddddddldldl, PS)”, the caspase activation (% of PBS control) worked out at 187.

Take “GTTACTGCCTTCTTAC (sugars ldlldddddddldlll, PS)”: the caspase activation (% of PBS control) was 195.

“GTTACTGCCTTCTTAC (sugars ldlldddddddllddl, PS)”: the caspase activation (% of PBS control) amounted to 255.

As for “GTTACTGCCTTCTTAC (sugars ldlldddddddlldll, PS)”, the caspase activation (% of PBS control) was 218.

“GTTACTGCCTTCTTAC (sugars ldlldddddddllldl, PS)” displayed a caspase activation (% of PBS control) of 365.

For the sequence “GTTACTGCCTTCTTAC (sugars ldlllddddddddldl, PS)”, the caspase activation (% of PBS control) is 438.

In turn, “GTTACTGCCTTCTTAC (sugars ldllldddddddlddl, PS)” showed a caspase activation (% of PBS control) of 461.

For the sequence “GTTACTGCCTTCTTAC (sugars ldllldddddddldll, PS)”, the caspase activation (% of PBS control) came to 387.
